Measurements as given in US8247377B2, “Non-steroidal glucocorticoid inhibitors and their use in treating inflammation, allergy and auto-immune conditions” (Glaxo Group Limited, priority 2006, dated 2012).

Test system: NFκB
Assay: NFκB agonist assay in A549 SPAP cells;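 on average maximum asymptote in the NFkB assay: maximum inhibition of the TNFα-induced NFκB-driven signal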
Assay type: cell-based
Conditions: Homo sapiens; for Emax: A549, A549 SPAP cells, >85% = full agonist, ≧20% = partial or full agonist, read-out: average maximum asymptote in the NFkB assay; for IC50: A549 SPAP cells, TNFα 3.2 ng/ml, read-out: pIC50 for the NFkB assay (converted)
Outline: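 A549 cells stably carrying an ELAM/NFκB-driven SPAP reporter were pre-incubated 1 h at 37° C with compound, then stimulated with TNFα (3.2 ng/ml final) for 15 h. SPAP activity read colorimetrically with pNPP at 405 nm after ~1 h; pIC50 estimated from dose-response curves.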

| SMILES | Emax | IC50 |
| --- | --- | --- |
| Nc1c(C(=O)NCC(O)(CNC(=O)c2c(F)cccc2Cl)C(F)(F)F)cnn1-c1ccc(F)cc1 (racemic) [Example 7 (racemic), 5-Amino-N-[2-({[(2-chloro-6-fluorophenyl)carbonyl]amino}methyl)-3,3,3-trifluoro-2-hydroxypropyl]-1-(4-fluorophenyl)-1H-pyrazole-4-carboxamide] | ≥ 20% | < 1000 nM |
| Nc1c(C(=O)NCC(O)(CN(CCF)C(=O)c2c(Cl)cccc2Br)C(F)(F)F)cnn1-c1ccc(F)cc1 (racemic) [Example 30 (racemic), 5-amino-N-(2-{[[(2-bromo-6-chlorophenyl)carbonyl](2-fluoroethyl)amino]methyl}-3,3,3-trifluoro-2-hydroxypropyl)-1-(4-fluorophenyl)-1H-pyrazole-4-carboxamide] | > 85% | < 1000 nM |
| Nc1c(C(=O)NCC(O)(CNC(=O)c2c(Br)cccc2C(F)(F)F)C(F)(F)F)cnn1-c1ccc(F)cc1 (single isomer, unassigned) [Example 45 Enantiomer 1, 5-Amino-N-{2-[({[2-bromo-6-(trifluoromethyl)phenyl]carbonyl}amino)methyl]-3,3,3-trifluoro-2-hydroxypropyl}-1-(4-fluorophenyl)-1H-pyrazole-4-carboxamide] | ≥ 20% | < 1000 nM |
| CCN(CC(O)(CNC(=O)c1cnn(-c2ccc(F)cc2)c1N)C(F)(F)F)C(=O)c1c(OC(F)F)cccc1OC(F)F (racemic) [Example 26 (racemic), 5-amino-N-(2-{[({2,6-bis[(difluoromethyl)oxy]phenyl}carbonyl)(ethyl)amino]methyl}-3,3,3-trifluoro-2-hydroxypropyl)-1-(4-fluorophenyl)-1H-pyrazole-4-carboxamide] | > 85% | < 1000 nM |
| Nc1c(C(=O)NCC(O)(CN(CCF)C(=O)c2c(F)cccc2C(F)(F)F)C(F)(F)F)cnn1-c1ccc(F)cc1 (racemic) [Example 18 (racemic), 5-amino-1-(4-fluorophenyl)-N-{3,3,3-trifluoro-2-[((2-fluoroethyl){[2-fluoro-6-(trifluoromethyl)phenyl]carbonyl}amino)methyl]-2-hydroxypropyl}-1H-pyrazole-4-carboxamide] | > 85% | < 1000 nM |
| CCN(CC(O)(CNC(=O)c1cnn(-c2cc(F)ccc2F)c1N)C(F)(F)F)C(=O)c1c(F)cccc1F (racemic) [Example 36 (racemic), 5-amino-1-(2,5-difluorophenyl)-N-(2-{[[(2,6-difluorophenyl)carbonyl](ethyl)amino]methyl}-3,3,3-trifluoro-2-hydroxypropyl)-1H-pyrazole-4-carboxamide] | > 85% | < 1000 nM |
| CN(CC(O)(CNC(=O)c1cnn(-c2ccc(F)cc2)c1N)C(F)(F)F)C(=O)c1c(F)cccc1Cl (racemic) [Example 9 (racemic), 5-Amino-N-(2-{[[(2-chloro-6-fluorophenyl)carbonyl](methyl)amino]methyl}-3,3,3-trifluoro-2-hydroxypropyl)-1-(4-fluorophenyl)-1H-pyrazole-4-carboxamide] | > 85% | < 1000 nM |
| CN(CC(O)(CNC(=O)c1cnn(-c2ccc(F)cc2)c1N)C(F)(F)F)C(=O)c1c(F)cccc1C(F)(F)F (racemic) [Example 21 (racemic), 5-amino-1-(4-fluorophenyl)-N-(3,3,3-trifluoro-2-{[{[2-fluoro-6-(trifluoromethyl)phenyl]carbonyl}(methyl)amino]methyl}-2-hydroxypropyl)-1H-pyrazole-4-carboxamide] | > 85% | < 1000 nM |
| Nc1c(C(=O)NCC(O)(CNC(=O)c2c(C(F)F)cccc2C(F)F)C(F)(F)F)cnn1-c1ccc(F)cc1 (racemic) [Example 43 (racemic), 5-Amino-N-{2-[({[2,6-bis(difluoromethyl)phenyl]carbonyl}amino)methyl]-3,3,3-trifluoro-2-hydroxypropyl}-1-(4-fluorophenyl)-1H-pyrazole-4-carboxamide] | ≥ 20% | < 1000 nM |
| CCN(CC(O)(CNC(=O)c1cnn(-c2ccc(F)cc2)c1N)C(F)(F)F)C(=O)c1c(Cl)cccc1OC(F)F (racemic) [Example 25 (racemic), 5-amino-N-(2-{[({2-chloro-6-[(difluoromethyl)oxy]phenyl}carbonyl)(ethyl)amino]methyl}-3,3,3-trifluoro-2-hydroxypropyl)-1-(4-fluorophenyl)-1H-pyrazole-4-carboxamide] | > 85% | < 1000 nM |
